The values below come from patent US12617779B2, “Self degradation-type CDK9 inhibitor prodrug and liposome encapsulating same” (Sumitomo Pharma Co., Ltd., priority 2021, dated 2026).

The conditions of data set [1]: mice, 2.5 mg/kg administration; cited from earlier work.
The nature of data set [2]: Evaluation of conversion rate to active form in buffer solution (Experimental Example 1). It is filed as physicochemical. The essentials:
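Conversion to Alvocidib was followed by HPLC over 3 hours at 37° C, with test compounds at 25 umol/L in 50 mM citrate or phosphate buffers spanning pH 5.0–7.4.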

Data set [3] is described as follows: Evaluation of conversion rate to active form in human plasma (Experimental Example 3). Conditions: human, 0.2 μmol/L. It is filed as in vitro ADME. Summed up:
(§1)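 Test compound at 0.2 μmol/L was incubated at 37° C in human or BALB/c mouse plasma and sampled at 0, 30 and 60 min or at 0, 60 and 120 min. Compound and Alvocidib were quantified by LC-MS/MS peak area. Attrition is relative to 0 min; conversion is relative to 0.2 μmol/L Alvocidib reference.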

Data set [4] can be described thus: Evaluation of conversion rate to active form in BALB/c mouse plasma (Experimental Example 3). In kind it is in vitro ADME. Particulars: BALB/c, mouse, 0.2 μmol/L. The essentials:
as §1

Data set [5] is described as follows: Pharmacokinetic test, intravenous solution and liposome formulations in mice (Experimental Example 6). It is filed as in vivo. Conditions: female BALB/c mice. As for the experimental part:
This was used as a solution formulation.
This was used as a liposome formulation.
Hydrogenated soybean phosphatidylcholine (COATSOME NC-21E, manufactured by NOF CORPORATION, 3.238 g), cholesterol (manufactured by Sigma, 1.160 g) and 1,2-disteroyl-rac-glycero-3-methylpolyoxyethylen 2000 (SUNBRIGHT GS-020, manufactured by NOF CORPORATION, 0.983 g) were dissolved in tert-butyl alcohol (300 mL) warmed to 65° C. The solution was placed in an eggplant flask and frozen in a dry ice-acetone bath, and then the tert-butyl alcohol was removed by evaporation under reduced pressure to give a lipid mixture.
To the above lipid mixture was added to a 250 mM ammonium sulfate solution (100 mL), and the mixture was warmed to 65° C., and dispersed by a homogenizer (ULTRA-TURRAX, manufactured by IKA) to give a crude liposome dispersion. […] The solution was filtered through a 0.22 μm membrane filter to adjust the total lipid concentration to 75 mM (75 μmol/mL). […] The solution was adjusted to pH 5 to 6 with 1 mol/L aqueous sodium hydroxide solution, warmed in a 65° C. water bath for 3 minutes, and ice-cooled. The liposome outer solution was replaced with 10 mM tartrate buffer solution/10% sucrose solution (pH 4) using a dialysis cassette (Slide-A-Lyzer G2 Dialysis Cassettes 20K MWCO, manufactured by Thermo Scientific), followed by filtration through a 0.22 μm membrane filter to adjust the concentration.
The solution formulation or liposome formulation was instantly administered intravenously to 7-week-old female BALB/c mice, and the blood was collected over time from the jugular vein without anesthesia up to 24 hours after administration for the solution formulation administration group and up to 72 hours after administration for the liposome formulation administration group. […] The plasma sample was centrifuged, and the concentrations of the test compound and Alvocidib in the obtained supernatant were determined by LC-MS/MS.

For orientation: AUC means the area under the concentration-time curve, a measure of exposure.

With `CN1CC[C@H](c2c(O)cc(O)c3c(=O)cc(-c4ccccc4Cl)oc23)[C@H](O)C1` [Alvocidib], the exposure (AUC) in data set [1] is 3.4 µmol·min/L.

On to `CCC(=O)O[C@@H]1CN(C)CC[C@@H]1c1c(O)cc(O)c2c(=O)cc(-c3ccccc3Cl)oc12` [Comparative Example 6], for which the “Production rate of Alvocidib” value worked out at 4.3% in data set [2] (pH7.4, 0 hr); 4.4% in data set [2] (pH7.4, 0.5 hr); 4.5% in data set [2] (pH7.4, 1 hr); 4.7% in data set [2] (pH7.4, 2 hr). The Residual rate is given as 93.7% in data set [2] (pH7.4, 0 hr); 93.6% in data set [2] (pH7.4, 0.5 hr); 95.1% in data set [2] (pH7.4, 1 hr); 94.9% in data set [2] (pH7.4, 2 hr). The “Conversion to Alvocidib at pH 7.4” value in data set [2] (pH 7.4, 37° C., up to 3 hours) is given as “slowly converted to Alvocidib”. Moreover, the “Production rate (%) of Alvocidib” value in data set [3] (0 min) came to 5%; in data set [3] (60 min), 12%; in data set [3] (120 min), 15%; in data set [4] (0 min), 6%; in data set [4] (60 min), 48%; in data set [4] (120 min), 66%. The “Residual rate (%) of test compound” value is given as 100% in data set [3] (0 min); 89% in data set [3] (60 min); 89% in data set [3] (120 min); 100% in data set [4] (0 min); 48% in data set [4] (60 min); 33% in data set [4] (120 min). The “Blood retention of liposome formulation compared with the corresponding solution formulation” value in data set [5] is given as “did not show improved blood retention”.
